In patent US8552016B2, “Anti-cancer cyclopenta(g)quinazoline compounds” (BTG International Limited, priority 2001, dated 2013):
Read-outs that look alike come from different tables or passages of the source.

How the values were obtained:
[1] = tested on: A431 cells; assay: Inhibition of growth of A431 (neo-transfected, not expressing α-FR) cells; type: cell-based, human; details: for A431: fold increased IC50 in presence of folic acid: 1 μM FA
From the text: (§1) CB300945, the (RS)-C2-CH2OH analogue of the known cyclopenta[g]-quinazoline, CB300638 was synthesised as in Example 1. In addition, the C2-NH2 was made as a comparative example. […] The human A431-FBP cell line was transfected with the α-FR and sensitivity compared with the A431 cell line. Human nasopharengeal KB cells constitutively overexpress this receptor (see Bagnoli et al. Oncogene, 19, 4754-4763, 2000).

[2] = tested on: A431-FBP cells; assay: Inhibition of growth of A431-FBP cells (A431 transfected with the α-FR); type: cell-based, human; details: for A431-FBP: fold increased IC50 in presence of folic acid: 1 μM FA; for activity in A431-FBP cells (in words): α-FR mediated uptake
From the text: as §1

[3] = tested on: KB cells; assay: Inhibition of growth of KB cells (constitutively overexpress α-FR); type: cell-based, human; details: for KB: fold increased IC50 in presence of folic acid: 1 μM FA
From the text: as §1

[4] = target: T1, α-FR of L1210-FBP cells (Mus musculus, UniProt P35846); assay: Binding to the α-FR relative to folic acid, L1210-FBP cells; details: >1 = binding greater than folic acid
T1 construct: endogenous in cells; host or cells: mouse L1210-FBP leukaemia cells

[5] = 20 nM LV, read-out: Inhibition of cell growth, IC50, A431
[6] = Homo sapiens, A-431, 1 nM LV, read-out: Inhibition of cell growth, IC50, A431
[7] = Homo sapiens, A-431, read-out: Inhibition of cell growth, IC50, A431 + 1 μM FA, 1 nM LV, + 1 μM folic acid
[8] = Homo sapiens, A-431, read-out: Inhibition of cell growth, IC50, A431 + 1 μM FA, 20 nM LV, + 1 μM folic acid
[9] = Homo sapiens, A-431, 1 nM LV, read-out: Inhibition of cell growth, IC50, A431-FBP
[10] = Homo sapiens, A-431, read-out: Inhibition of cell growth, IC50, A431-FBP + 1 μM FA, 1 nM LV, + 1 μM folic acid
[11] = Homo sapiens, A-431, read-out: Inhibition of cell growth, IC50, A431-FBP + 1 μM FA, 20 nM LV, + 1 μM folic acid
[12] = Homo sapiens, KB, 1 nM LV, read-out: Inhibition of cell growth, IC50, KB
[13] = Homo sapiens, KB, read-out: Inhibition of cell growth, IC50, KB + 1 μM FA, 1 nM LV, + 1 μM folic acid
[14] = Homo sapiens, KB, read-out: Inhibition of cell growth, IC50, KB + 1 μM FA, 20 nM LV, + 1 μM folic acid

T1 sequence (P35846 25-232): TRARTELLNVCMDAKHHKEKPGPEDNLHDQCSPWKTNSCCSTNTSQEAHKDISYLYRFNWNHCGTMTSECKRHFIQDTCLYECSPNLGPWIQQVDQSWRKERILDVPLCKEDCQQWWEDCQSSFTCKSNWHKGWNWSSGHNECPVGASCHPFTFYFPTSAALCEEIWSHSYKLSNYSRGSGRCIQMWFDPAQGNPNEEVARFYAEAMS

A431: fold increased IC50 in presence of folic acid ([1]; 1 nM LV)	A431: fold increased IC50 in presence of folic acid ([1]; 20 nM LV)	IC50 [1, 6] [µM]	IC50 [1, 7] [µM]	A431-FBP: fold increased IC50 in presence of folic acid ([2]; 20 nM LV)	IC50 [2, 9] [µM]	IC50 [2, 10] [µM]	IC50 [2, 11] [µM]	IC50 [3, 12] [µM]	IC50 [3, 13] [µM]	IC50 [3, 14] [µM]	relative binding affinity (inverse relative affinity) for the α-FR [4]	SMILES	IC50 [1, 5] [µM]	IC50 [1, 8] [µM]	A431-FBP: fold increased sensitivity compared with A431 ([2]; 1 nM LV)	A431-FBP: fold increased IC50 in presence of folic acid ([2]; 1 nM LV)	A431-FBP: fold increased sensitivity compared with A431 ([2]; 20 nM LV)	activity in A431-FBP cells (in words) [2]	KB: fold increased IC50 in presence of folic acid ([3]; 1 nM LV)	KB: fold increased IC50 in presence of folic acid ([3]; 20 nM LV)	other results
(1) fold	(1) fold	24 ± 3.6	24 ± 2.9	(1) fold	9.1 ± 0.83	12 ± 2.1	7.1 ± 1	19	19 ± 1.5	19 ± 1.2	0.57	C#CCN(c1ccc(C(=O)N[C@@H](CCC(=O)N[C@H](CCC(=O)O)C(=O)O)C(=O)O)cc1)C1CCc2cc3nc(N)[nH]c(=O)c3cc21 (mixture of isomers) [CB300944 (RS)]	27	22	(3) fold	(1) fold	(3) fold	very little activity	(1) fold	(1) fold	IC50 ([1]; Homo sapiens, A-431, 20 nM LV, read-out: Inhibition of cell growth, IC50, A431): 23 µM; IC50 ([2]; Homo sapiens, A-431, 20 nM LV, read-out: Inhibition of cell growth, IC50, A431-FBP): 8.3 ± 0.64 µM; IC50 ([3]; Homo sapiens, KB, 20 nM LV, read-out: Inhibition of cell growth, IC50, KB): 19 ± 0.58 µM
	(1) fold			(180) fold			5.1					C#CCN(c1ccc(C(=O)N[C@@H](CCC(=O)N(C)[C@@H](CCC(=O)O)C(=O)O)C(=O)O)cc1)C1CCc2cc3nc(CO)[nH]c(=O)c3cc21 (mixture of isomers) [CB300960 (R, S), N—{N-{4-[N-((6RS)-2-hydroxymethyl-4-oxo-3,4,7,8-tetrahydro-6H-cyclopenta[g]quinazolin-6-yl)-N-(prop-2-ynyl)amino]benzoyl}-L-γ-glutamyl}-N-methyl-L-glutamic acid]									
(1) fold	(1) fold	1.2 ± 0.21	0.98 ± 0.23	(130) fold	0.0072 ± 0.001	0.61 ± 0.012	0.87 ± 0.29	0.0079 ± 0.001	0.61 ± 0.012	0.76 ± 0.17	0.57	C#CCN(c1ccc(C(=O)N[C@@H](CCC(=O)N[C@H](CCC(=O)O)C(=O)O)C(=O)O)cc1)C1CCc2cc3nc(C)[nH]c(=O)c3cc21 (mixture of isomers) [CB300638 (RS)]			(170) fold	(85) fold	(220) fold	highly sensitive	(76) fold	(140) fold	

SMILES	A431: fold increased IC50 in presence of folic acid ([1]; 1 nM LV)	A431: fold increased IC50 in presence of folic acid ([1]; 20 nM LV)	IC50 [1, 6] [µM]	IC50 [1, 7] [µM]	A431-FBP: fold increased IC50 in presence of folic acid ([2]; 20 nM LV)	IC50 [2, 9] [µM]	IC50 [2, 10] [µM]	IC50 [2, 11] [µM]	IC50 [3, 12] [µM]	IC50 [3, 13] [µM]	IC50 [3, 14] [µM]	relative binding affinity (inverse relative affinity) for the α-FR [4]	IC50 [1, 5] [µM]	IC50 [1, 8] [µM]	A431-FBP: fold increased sensitivity compared with A431 ([2]; 1 nM LV)	A431-FBP: fold increased IC50 in presence of folic acid ([2]; 1 nM LV)	A431-FBP: fold increased sensitivity compared with A431 ([2]; 20 nM LV)	activity in A431-FBP cells (in words) [2]	KB: fold increased IC50 in presence of folic acid ([3]; 1 nM LV)	KB: fold increased IC50 in presence of folic acid ([3]; 20 nM LV)	other results
C#CCN(Cc1cc2c(O)nc(C)nc2cc1C)c1ccc(C(=O)N[C@@H](CCc2nnn[nH]2)C(=O)O)c(F)c1 [ZD9331]	(1) fold	(1) fold			(2) fold								0.082 ± 0.042		(7) fold	(3) fold	(4) fold		(3) fold	(3) fold	IC50 ([1]; 1 nM LV, read-out: Inhibition of cell growth, IC50, A431): 0.061 ± 0.014 µM; IC50 ([1]; read-out: Inhibition of cell growth, IC50, A431 + 1 μM FA, 1 nM LV, + 1 μM folic acid): 0.056 ± 0.025 µM; IC50 ([1]; read-out: Inhibition of cell growth, IC50, A431 + 1 μM FA, 20 nM LV, + 1 μM folic acid): 0.067 ± 0.029 µM; IC50 ([2]; 1 nM LV, read-out: Inhibition of cell growth, IC50, A431-FBP): 0.0088 ± 0.0052 µM; IC50 ([2]; 20 nM LV, read-out: Inhibition of cell growth, IC50, A431-FBP): 0.018 ± 0.0097 µM; IC50 ([2]; read-out: Inhibition of cell growth, IC50, A431-FBP + 1 μM FA, 1 nM LV, + 1 μM folic acid): 0.027 ± 0.0076 µM; IC50 ([2]; read-out: Inhibition of cell growth, IC50, A431-FBP + 1 μM FA, 20 nM LV, + 1 μM folic acid): 0.034 ± 0.0087 µM; IC50 ([3]; 1 nM LV, read-out: Inhibition of cell growth, IC50, KB): 0.0021 ± 0.0013 µM; IC50 ([3]; 20 nM LV, read-out: Inhibition of cell growth, IC50, KB): 0.0036 ± 0.0021 µM; IC50 ([3]; read-out: Inhibition of cell growth, IC50, KB + 1 μM FA, 1 nM LV, + 1 μM folic acid): 0.00641 ± 0.0035 µM; IC50 ([3]; read-out: Inhibition of cell growth, IC50, KB + 1 μM FA, 20 nM LV, + 1 μM folic acid): 0.012 ± 0.005 µM
C#CCN(c1ccc(C(=O)N[C@@H](CCC(=O)N[C@H](CCC(=O)O)C(=O)O)C(=O)O)cc1)C1CCc2cc3nc(CO)[nH]c(=O)c3cc21 (mixture of isomers) [CB300945 (RS), N—{N-{4-[N-((6RS)-2-Hydroxymethyl-4-oxo-3,4,7,8-tetrahydro-6H-cyclopenta[g]quinazolin-6-yl)-N-(prop-2-ynyl)amino]benzoyl}-L-γ-glutamyl}-D-glutamic acid]		(1) fold	7.2 ± 3.6	7.3 ± 3.3	(3100) fold	0.0019 ± 0.0006	5.7 ± 1.3	6.5 ± 0.86		7.6 ± 1.3	7.3 ± 2	0.71		9.3 ± 3.5	(3800) fold	(3100) fold	(4700) fold	highly potent	(2200) fold	(2100) fold	
